These results are taken from US9676758B2, “1-heteroaryl-indoline-4-carboxamides as modulators of GPR52 useful for the treatment or prevention of disorders related thereto” (Arena Pharmaceuticals, Inc., priority 2015, dated 2017).

In general, EC50 refers to the midpoint of the concentration-response curve.

In this test the target is T1, recombinant GPR52 (Homo sapiens, UniProt Q9Y2T5).
T1 construct: expressed in transfected cells
T1 sequence (Q9Y2T5 whole entry): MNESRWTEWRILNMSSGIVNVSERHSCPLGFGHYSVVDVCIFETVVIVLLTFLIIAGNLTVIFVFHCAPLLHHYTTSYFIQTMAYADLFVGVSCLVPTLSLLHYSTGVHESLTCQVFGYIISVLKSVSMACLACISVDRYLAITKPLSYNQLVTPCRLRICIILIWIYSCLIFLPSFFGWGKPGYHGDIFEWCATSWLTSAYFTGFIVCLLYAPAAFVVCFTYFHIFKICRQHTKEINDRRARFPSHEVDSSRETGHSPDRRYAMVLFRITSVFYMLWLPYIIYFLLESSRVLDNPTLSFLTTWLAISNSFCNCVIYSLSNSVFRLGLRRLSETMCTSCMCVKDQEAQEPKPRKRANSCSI
Nature of the test: HTRF cAMP assay for direct cAMP measurement. The following applies: mean EC50; CHO-K1 or HEK293 cells stably expressing recombinant GPR52. It counts as cell-based. The method, then:
HTRF cAMP assays were performed using commercially available assay kits according to the manufacturer's instructions (cAMP Dynamic 2 Assay Kit; #62AM4PEJ, Cisbio Bioassays, Bedford, Mass.). CHO-K1 or HEK293 cells stably expressing recombinant GPR52 were harvested and resuspended in assay buffer (PBS containing 0.5 mM IBMX and 0.1% BSA) at a density of 1.2×10^6 cells per mL. […] Test compounds were solubilized and serially diluted in DMSO using 5-fold dilutions to generate 10-point dose response curves. These serially diluted samples were then further diluted in PBS to achieve a 2× stock. The diluted compounds were transferred to triplicate assay plates (5 μL per well to achieve the 1× final assay concentration). A positive control was included in each assay run. After one-hour incubation at room temperature, 5 μL of cAMP D2 reagent diluted in lysis buffer was added to each well, followed by 5 μL of cryptate reagent. Plates were then incubated at room temperature for one hour prior to reading. Time-resolved fluorescence measurements were collected on an HTRF-capable plate reader (e.g., EnVision® (PerkinElmer, Waltham, Mass.) or PHERAstar (BMG LABTECH, Cary, N.C.)). Counts from the plate reader were fit to the cAMP standard curve included on each plate to determine the amount of cAMP in each test well. Dose-response curves were generated from the cAMP data and analyzed using a nonlinear least squares curve-fitting program to obtain EC50 values.
On the technique in general: In TR-FRET formats the signal depends on donor and acceptor labels being close together.
On to `O=C(N[C@H]1CCOC1)c1cccc2c1CCN2c1cccc(Cc2cccc(C(F)(F)F)c2)n1` [Compound 2, (S)-N-(Tetrahydrofuran-3-yl)-1-(6-(3-(trifluoromethyl)benzyl)pyridin-2-yl)indoline-4-carboxamide], for which the concentration for a half-maximal effect (EC50) amounted to 106 nM.
As for `O=C(N[C@H]1CCOC1)c1cccc2c1CCN2c1ccnc(Cc2cccc(C(F)(F)F)c2)c1` [Compound 3, (S)-N-(Tetrahydrofuran-3-yl)-1-(2-(3-(trifluoromethyl)benzyl)pyridin-4-yl)indoline-4-carboxamide], the half-maximal effective concentration (EC50) stood at 10.3 nM.
In the case of `O=C(N[C@H]1CCOC1)c1cccc2c1CCN2c1cc(Cc2cccc(C(F)(F)F)c2)ccn1` [Compound 4, (S)-N-(Tetrahydrofuran-3-yl)-1-(4-(3-(trifluoromethyl)benzyl)pyridin-2-yl)indoline-4-carboxamide], the EC50 worked out at 12.3 nM.
With `O=C(N[C@H]1CCOC1)c1cccc2c1CCN2c1cncc(Cc2cccc(C(F)(F)F)c2)c1` [Compound 7, (S)-N-(Tetrahydrofuran-3-yl)-1-(5-(3-(trifluoromethyl)benzyl)pyridin-3-yl)indoline-4-carboxamide], the half-maximal effective concentration (EC50) stood at 5.21 nM.
For the compound `CNC(=O)c1cccc2c1CCN2c1cncc(Cc2cccc(C(F)(F)F)c2)c1` [Compound 9, N-Methyl-1-(5-(3-(trifluoromethyl)benzyl)pyridin-3-yl)indoline-4-carboxamide], the concentration giving a half-maximal response (EC50) is 7.45 nM.
In the case of `Cc1cc(Cc2cccc(C(F)(F)F)c2)cc(N2CCc3c(C(N)=O)cccc32)n1` [Compound 17, 1-(6-Methyl-4-(3-(trifluoromethyl)benzyl)pyridin-2-yl)indoline-4-carboxamide], the EC50 was 80.4 nM.
In the case of `N#CCCNC(=O)c1cccc2c1CCN2c1cc(Cc2cccc(C(F)(F)F)c2)ccn1` [Compound 20, N-(2-Cyanoethyl)-1-(4-(3-(trifluoromethyl)benzyl)pyridin-2-yl)indoline-4-carboxamide], the 50% effective concentration (EC50) came to 36.3 nM.
Under `O=C(NCCO)c1cccc2c1CCN2c1cc(Oc2cc(F)cc(C(F)(F)F)c2)ccn1` [Compound 23, 1-(4-(3-Fluoro-5-(trifluoromethyl)phenoxy)pyridin-2-yl)-N-(2-hydroxyethyl)indoline-4-carboxamide] stands 98.4 nM.
The figure for `NC(=O)c1cccc2c1CCN2c1cc(Sc2cccc(C(F)(F)F)c2)ccn1` [Compound 30, 1-(4-(3-(Trifluoromethyl)phenylthio)pyridin-2-yl)indoline-4-carboxamide] is 428 nM.
As for `O=C(NC[C@H](O)CO)c1cccc2c1CCN2c1cc(Cc2cc(F)cc(C(F)(F)F)c2)ccn1` [Compound 31, (S)-N-(2,3-Dihydroxypropyl)-1-(4-(3-fluoro-5-(trifluoromethyl)benzyl)pyridin-2-yl)indoline-4-carboxamide], the concentration giving a half-maximal response (EC50) came out at 72 nM.
For `O=C(NCCO)c1cccc2c1CCN2c1cncc(Cc2cccc(C(F)(F)F)c2)n1` [Compound 38, N-(2-Hydroxyethyl)-1-(6-(3-(trifluoromethyl)benzyl)pyrazin-2-yl)indoline-4-carboxamide], the half-maximal effective concentration (EC50) is 601 nM.
In the case of `NC(=O)c1cccc2c1CCN2c1cc(Cc2cnc(F)c(F)c2)ccn1` [Compound 49, 1-(4-((5,6-Difluoropyridin-3-yl)methyl)pyridin-2-yl)indoline-4-carboxamide], the EC50 was 61.6 nM.
For the compound `Cc1cc(Cc2ccnc(N3CCc4c(C(N)=O)cccc43)c2)cnc1F` [Compound 50, 1-(4-((6-Fluoro-5-methylpyridin-3-yl)methyl)pyridin-2-yl)indoline-4-carboxamide], the EC50 was 17.4 nM.
As to `CC(=O)c1ccc(Cc2ccnc(N3CCc4c(C(N)=O)cccc43)c2)cc1` [Compound 55, 1-(4-(4-Acetylbenzyl)pyridin-2-yl)indoline-4-carboxamide], the EC50 stood at 16 nM.
Under `CNC(=O)c1cc(Cc2ccnc(N3CCc4c(C(N)=O)cccc43)c2)ccc1F` [Compound 59, 1-(4-(4-Fluoro-3-(methylcarbamoyl)benzyl)pyridin-2-yl)indoline-4-carboxamide] stands 223 nM.
